Test results as given in ChEMBL document CHEMBL4411303, “Synthesis of tetrazole derivatives bearing pyrrolidine scaffold and evaluation of their antifungal activity against Candida albicans” (Eur J Med Chem, 2019).

How the values were obtained:
Format in all cases: functional
[1] = test system: Candida albicans; assay: Antifungal activity against Candida albicans ATCC 90028 assessed as planktonic growth inhibition at 0.08 uM after 48 hrs by M27-A3 protocol based method relative to control; conditions: ATCC 90028, 48 h, read-out: GI
[2] = test system: Candida albicans; assay: Antifungal activity against Candida albicans ATCC 90028 assessed as planktonic growth inhibition at 0.16 uM after 48 hrs by M27-A3 protocol based method relative to control; conditions: ATCC 90028, 48 h, read-out: GI
[3] = test system: Candida albicans; assay: Antifungal activity against Candida albicans ATCC 90028 assessed as planktonic growth inhibition at 0.33 uM after 48 hrs by M27-A3 protocol based method relative to control; conditions: ATCC 90028, 48 h, read-out: GI
[4] = test system: Candida albicans; assay: Antifungal activity against Candida albicans ATCC 90028 assessed as planktonic growth inhibition at 0.65 uM after 48 hrs by M27-A3 protocol based method relative to control; conditions: ATCC 90028, 48 h, read-out: GI
[5] = test system: Candida albicans; assay: Antifungal activity against Candida albicans ATCC 90028 assessed as planktonic growth inhibition at 1.31 uM after 48 hrs by M27-A3 protocol based method relative to control; conditions: ATCC 90028, 48 h, read-out: GI
[6] = test system: Candida albicans; assay: Antifungal activity against Candida albicans ATCC 90028 assessed as planktonic growth inhibition at 2.62 uM after 48 hrs by M27-A3 protocol based method relative to control; conditions: ATCC 90028, 48 h, read-out: GI
[7] = test system: Candida albicans; assay: Antifungal activity against Candida albicans ATCC 90028 assessed as planktonic growth inhibition at 5.24 uM after 48 hrs by M27-A3 protocol based method relative to control; conditions: ATCC 90028, 48 h, read-out: GI
[8] = test system: Candida albicans; assay: Antifungal activity against Candida albicans ATCC 90028 assessed as planktonic growth inhibition at 10.47 uM after 48 hrs by M27-A3 protocol based method relative to control; conditions: ATCC 90028, 48 h, read-out: GI
[9] = test system: Candida albicans; assay: Antifungal activity against Candida albicans ATCC 90028 assessed as planktonic growth inhibition at 20.95 uM after 48 hrs by M27-A3 protocol based method relative to control; conditions: ATCC 90028, 48 h, read-out: GI
[10] = test system: Candida albicans; assay: Antifungal activity against Candida albicans ATCC 90028 assessed as planktonic growth inhibition at 41.9 uM after 48 hrs by M27-A3 protocol based method relative to control; conditions: ATCC 90028, 48 h, read-out: GI
[11] = test system: Candida albicans; assay: Fungicidal activity against Candida albicans ATCC 90028 assessed as log reduction in fungal load incubated for 48 hrs followed by replating on sabouraud dextrose agar plate and measured after 48 hrs
[12] = test system: Candida albicans; assay: Antifungal activity against Candida albicans ATCC 90028 assessed as planktonic growth inhibition at 0.31 uM after 48 hrs by M27-A3 protocol based method relative to control; conditions: ATCC 90028, 48 h, read-out: GI
[13] = test system: Candida albicans; assay: Antifungal activity against Candida albicans ATCC 90028 assessed as planktonic growth inhibition at 0.62 uM after 48 hrs by M27-A3 protocol based method relative to control; conditions: ATCC 90028, 48 h, read-out: GI
[14] = test system: Candida albicans; assay: Antifungal activity against Candida albicans ATCC 90028 assessed as planktonic growth inhibition at 1.24 uM after 48 hrs by M27-A3 protocol based method relative to control; conditions: ATCC 90028, 48 h, read-out: GI
[15] = test system: Candida albicans; assay: Antifungal activity against Candida albicans ATCC 90028 assessed as planktonic growth inhibition at 2.49 uM after 48 hrs by M27-A3 protocol based method relative to control; conditions: ATCC 90028, 48 h, read-out: GI
[16] = test system: Candida albicans; assay: Antifungal activity against Candida albicans ATCC 90028 assessed as planktonic growth inhibition at 4.97 uM after 48 hrs by M27-A3 protocol based method relative to control; conditions: ATCC 90028, 48 h, read-out: GI
[17] = test system: Candida albicans; assay: Antifungal activity against Candida albicans ATCC 90028 assessed as planktonic growth inhibition at 9.94 uM after 48 hrs by M27-A3 protocol based method relative to control; conditions: ATCC 90028, 48 h, read-out: GI
[18] = test system: Candida albicans; assay: Antifungal activity against Candida albicans ATCC 90028 assessed as planktonic growth inhibition at 19.88 uM after 48 hrs by M27-A3 protocol based method relative to control; conditions: ATCC 90028, 48 h, read-out: GI
[19] = test system: Candida albicans; assay: Antifungal activity against Candida albicans ATCC 90028 assessed as planktonic growth inhibition at 39.77 uM after 48 hrs by M27-A3 protocol based method relative to control; conditions: ATCC 90028, 48 h, read-out: GI
[20] = test system: Candida albicans; assay: Antifungal activity against Candida albicans ATCC 90028 assessed as planktonic growth inhibition at 0.17 uM after 48 hrs by M27-A3 protocol based method relative to control; conditions: ATCC 90028, 48 h, read-out: GI
[21] = test system: Candida albicans; assay: Antifungal activity against Candida albicans ATCC 90028 assessed as planktonic growth inhibition at 0.34 uM after 48 hrs by M27-A3 protocol based method relative to control; conditions: ATCC 90028, 48 h, read-out: GI
[22] = test system: Candida albicans; assay: Antifungal activity against Candida albicans ATCC 90028 assessed as planktonic growth inhibition at 0.68 uM after 48 hrs by M27-A3 protocol based method relative to control; conditions: ATCC 90028, 48 h, read-out: GI
[23] = test system: Candida albicans; assay: Antifungal activity against Candida albicans ATCC 90028 assessed as planktonic growth inhibition at 1.36 uM after 48 hrs by M27-A3 protocol based method relative to control; conditions: ATCC 90028, 48 h, read-out: GI
[24] = test system: Candida albicans; assay: Antifungal activity against Candida albicans ATCC 90028 assessed as planktonic growth inhibition at 2.72 uM after 48 hrs by M27-A3 protocol based method relative to control; conditions: ATCC 90028, 48 h, read-out: GI
[25] = test system: Candida albicans; assay: Antifungal activity against Candida albicans ATCC 90028 assessed as planktonic growth inhibition at 5.44 uM after 48 hrs by M27-A3 protocol based method relative to control; conditions: ATCC 90028, 48 h, read-out: GI
[26] = test system: Candida albicans; assay: Antifungal activity against Candida albicans ATCC 90028 assessed as planktonic growth inhibition at 10.87 uM after 48 hrs by M27-A3 protocol based method relative to control; conditions: ATCC 90028, 48 h, read-out: GI
[27] = test system: Candida albicans; assay: Antifungal activity against Candida albicans ATCC 90028 assessed as planktonic growth inhibition at 21.75 uM after 48 hrs by M27-A3 protocol based method relative to control; conditions: ATCC 90028, 48 h, read-out: GI
[28] = test system: Candida albicans; assay: Antifungal activity against Candida albicans ATCC 90028 assessed as planktonic growth inhibition at 43.49 uM after 48 hrs by M27-A3 protocol based method relative to control; conditions: ATCC 90028, 48 h, read-out: GI
[29] = test system: Candida albicans; assay: Antifungal activity against Candida albicans ATCC 90028 assessed as planktonic growth inhibition at 0.09 uM after 48 hrs by M27-A3 protocol based method relative to control; conditions: ATCC 90028, 48 h, read-out: GI
[30] = test system: Candida albicans; assay: Antifungal activity against Candida albicans ATCC 90028 assessed as planktonic growth inhibition at 0.18 uM after 48 hrs by M27-A3 protocol based method relative to control; conditions: ATCC 90028, 48 h, read-out: GI
[31] = test system: Candida albicans; assay: Antifungal activity against Candida albicans ATCC 90028 assessed as planktonic growth inhibition at 0.36 uM after 48 hrs by M27-A3 protocol based method relative to control; conditions: ATCC 90028, 48 h, read-out: GI
[32] = test system: Candida albicans; assay: Antifungal activity against Candida albicans ATCC 90028 assessed as planktonic growth inhibition at 0.72 uM after 48 hrs by M27-A3 protocol based method relative to control; conditions: ATCC 90028, 48 h, read-out: GI
[33] = test system: Candida albicans; assay: Antifungal activity against Candida albicans ATCC 90028 assessed as planktonic growth inhibition at 1.44 uM after 48 hrs by M27-A3 protocol based method relative to control; conditions: ATCC 90028, 48 h, read-out: GI
[34] = test system: Candida albicans; assay: Antifungal activity against Candida albicans ATCC 90028 assessed as planktonic growth inhibition at 2.88 uM after 48 hrs by M27-A3 protocol based method relative to control; conditions: ATCC 90028, 48 h, read-out: GI
[35] = test system: Candida albicans; assay: Antifungal activity against Candida albicans ATCC 90028 assessed as planktonic growth inhibition at 5.76 uM after 48 hrs by M27-A3 protocol based method relative to control; conditions: ATCC 90028, 48 h, read-out: GI
[36] = test system: Candida albicans; assay: Antifungal activity against Candida albicans ATCC 90028 assessed as planktonic growth inhibition at 11.51 uM after 48 hrs by M27-A3 protocol based method relative to control; conditions: ATCC 90028, 48 h, read-out: GI
[37] = test system: Candida albicans; assay: Antifungal activity against Candida albicans ATCC 90028 assessed as planktonic growth inhibition at 23.02 uM after 48 hrs by M27-A3 protocol based method relative to control; conditions: ATCC 90028, 48 h, read-out: GI
[38] = test system: Candida albicans; assay: Antifungal activity against Candida albicans ATCC 90028 assessed as planktonic growth inhibition at 46.05 uM after 48 hrs by M27-A3 protocol based method relative to control; conditions: ATCC 90028, 48 h, read-out: GI

| SMILES | inhibition of growth at 0.08 µM [1] | inhibition of growth at 0.16 µM [2] | inhibition of growth at 0.33 µM [3] | inhibition of growth at 0.65 µM [4] | inhibition of growth at 1.31 µM [5] | inhibition of growth at 2.62 µM [6] | inhibition of growth at 5.24 µM [7] | inhibition of growth at 10.47 µM [8] | inhibition of growth at 20.95 µM [9] | inhibition of growth at 41.9 µM [10] | log(activity) [11] | also measured |
| --- | --- | --- | --- | --- | --- | --- | --- | --- | --- | --- | --- | --- |
| Cc1cccc(C2CCCN2CCCn2nnc(-c3ccc(Cl)cc3)n2)c1 (stereo unspecified) | 99.3% | 99.3% | 99.3% | 99.3% | 99.3% | 99.3% | 99.3% | 98.9% | 98.8% | 98.9% | -0.4 |  |
| Cc1ccc(C2CCCN2CCCn2nnc(-c3ccc(Cl)cc3)n2)cc1 (stereo unspecified) | 99.2% | 99.1% | 99.3% | 99.2% | 99.4% | 99.2% | 99.4% | 99.4% | 99.4% | 99.2% | -0.5 |  |
| Clc1ccc(C2CCCN2CCCn2nnc(-c3ccccc3Cl)n2)cc1 (stereo unspecified) | 98.8% | 98.9% |  |  |  |  |  |  |  |  | -0.4 | inhibition of growth at 0.31 µM [12]: 99%; inhibition of growth at 0.62 µM [13]: 99.2%; inhibition of growth at 1.24 µM [14]: 99.2%; inhibition of growth at 2.49 µM [15]: 99.3%; inhibition of growth at 4.97 µM [16]: 99.3%; inhibition of growth at 9.94 µM [17]: 99.4%; inhibition of growth at 19.88 µM [18]: 99.5%; inhibition of growth at 39.77 µM [19]: 99.6% |
| Clc1ccc(-c2nnn(CCCN3CCCC3c3ccccc3)n2)cc1 (stereo unspecified) | 99.3% |  |  |  |  |  |  |  |  |  | -0.5 | inhibition of growth at 0.17 µM [20]: 99.3%; inhibition of growth at 0.34 µM [21]: 99.3%; inhibition of growth at 0.68 µM [22]: 99.3%; inhibition of growth at 1.36 µM [23]: 99.4%; inhibition of growth at 2.72 µM [24]: 99.4%; inhibition of growth at 5.44 µM [25]: 99.3%; inhibition of growth at 10.87 µM [26]: 99.2%; inhibition of growth at 21.75 µM [27]: 99.2%; inhibition of growth at 43.49 µM [28]: 99.1% |
| Cc1cccc(C2CCCN2CCCn2nnc(-c3ccccc3Cl)n2)c1 (stereo unspecified) | 99.1% | 99.1% | 99.2% | 99.2% | 99.2% | 99.3% | 99.4% | 99.6% | 99.7% | 99.8% | -0.5 |  |
| Cc1ccc(C2CCCN2CCCn2nnc(-c3ccccc3)n2)cc1 (stereo unspecified) |  |  |  |  |  |  |  |  |  |  | -0.6 | inhibition of growth at 0.09 µM [29]: 98.9%; inhibition of growth at 0.18 µM [30]: 99.3%; inhibition of growth at 0.36 µM [31]: 99%; inhibition of growth at 0.72 µM [32]: 99.3%; inhibition of growth at 1.44 µM [33]: 99.2%; inhibition of growth at 2.88 µM [34]: 99.2%; inhibition of growth at 5.76 µM [35]: 99.2%; inhibition of growth at 11.51 µM [36]: 99.5%; inhibition of growth at 23.02 µM [37]: 99%; inhibition of growth at 46.05 µM [38]: 99% |
